Reference: patent publication US5401514A, “Solid, fast-soluble pharmaceutical preparation containing S-(carboxymethyl)-L-cysteine and/or N-acetylcysteine” (Spirig AG, Pharmazeutische Praeparate, priority 1990, dated 1995)

Key:
[1] = background knowledge; cited from earlier work
[2] = Comparative bioavailability test in 10 subjects, plasma N-acetylcysteine by HPLC (tributyl phosphine reduction, o-phthalaldehyde post-column derivatization), oral 200 mg
Description: A process for quantitative determination of N-acetylcysteine in plasma was used, which split the active ingredient with tributyl phosphine reductively and derivatized in with a post-HPLC column using o-phthalaldehyde.
The comparative test is documented in Biopharmaceutics & Drug Disposition, Vol. 12, 343-353 (1991).

| Structure (SMILES) | main effect [1] | tolerability [1] | endogenous average concentrations in plasma ([2]; human, in vivo) | Cmax relative to endogenous plasma values ([2]; one 200 mg dose, oral, up to) |
| --- | --- | --- | --- | --- |
| N[C@@H](CSCC(=O)O)C(=O)O [carbocysteine, S-(carboxymethyl)-L-cysteine] | expectorant | very well tolerated | – | – |
| CC(=O)N[C@@H](CS)C(=O)O [N-acetylcysteine] | expectorant | very well tolerated | 0.08 µM | up to 20 times |
